Here are results for 1 compound from patent publication US11969428B2, “Methods and pharmaceutical compositions for treating lymphoid malignancy” (priority 2011, dated 2024).

In assay [1] the test system is primary human T-ALL tumor cells. The assay is described as follows: Primary T-ALL cell viability on MS5-DL1 stroma. It is filed as cell-based. The settings on record: selective blockade of PI3Kδ. As for the experimental part:
(§1) Cell proliferation of CCRF-CEM cells or shRNA transfected CCRF-CEM cells, in the presence or absence of appropriate drug, was followed by cell counting of samples in triplicate using a hemocytometer and trypan blue. For apoptosis determinations of untransfected or shRNA transfected CCRF-CEMs, cells were stained with APC-conjugated Annexin-V (BD Biosciences) in Annexin Binding Buffer (Miltyeni Biotec) and analyzed by flow cytometry. For primary T-ALL samples, cell viability was assessed using the BD Cell Viability kit (BD Biosciences) coupled with the use of fluorescent counting beads as previously described (Armstrong et al., 2009). For this, cells were plated with MS5-DL1 stroma cells, and after 72 hours following drug treatment cells were harvested and stained with an APC-conjugated anti-human CD45 followed by a staining with the above kit according to the manufacturer's instructions.

The subject of assay [2] is Akt/PKB phosphorylation. Description: TCR-induced Akt/PKB phosphorylation in thymocytes (Western blot). It is filed as cell-based, mouse. The settings on record: p110γ−/− thymocytes; IC87114 10 μM. As for the experimental part:
Cell lysates (from cell lines or thymocytes) were prepared on ice in M-PER Mammalian Protein Extraction reagent (Pierce) containing a cocktail of protease and phosphatase inhibitors (Swat et al., 2006). Equal amounts of total protein from lysates were subjected to SDS-PAGE, transferred to PVDF membrane (Immobilon-P, Millipore), and membranes probed by overnight incubation with appropriate primary antibodies. Bound antibodies were visualized with HRP-conjugated secondary antibodies and ECL chemistry (SuperPico West, Pierce).
To assess the requirement for p110δ in TCR-induced phosphorylation of Akt/PBK, single-cell suspensions of thymocytes (1×10^8/mL) from PI3Kγ-deficient animals were incubated with the p110δ-specific inhibitor IC87114 (10 μM) or with vehicle control (DMSO) for 30 minutes before TCR cross-linking, as described for the Ca^2+ flux assay. Aliquots (100 μL) were collected at 0, 10, 30, and 60 minutes after TCR cross-linking, briefly centrifuged to pellet, and subsequently lysed with ice-cold M-Per (Pierce, Rockford, IL) (according to the manufacturer's recommendations) that contained a cocktail of phosphatase and protease inhibitors (Puri et al., 2005). Lysates were clarified by centrifugation (12,000 g for 15 minutes at 4° C.), and total and phosphorylated Akt/PBK were determined by Western blot analysis.
(In general: Immunoblotting shows a protein as a band on a membrane.)

For assay [3], the system named is CCRF-CEM cells. The assay is described as follows: Cell proliferation and apoptosis (cell counting, Annexin V). It is filed as cell-based, human. As for the experimental part: as §1
The test system of assay [4] is CD4+CD8+ DP thymocytes. The assay is described as follows: Fetal thymus organ culture, flow cytometry. The following applies: IC87114 10 μM, 1 week. It is filed as cell-based, mouse. The text has this:
Thymus lobes were obtained from mouse embryos, with embryonic day 0 (EO) considered the day of vaginal plug detection. Fetal thymus organ cultures were used to compare the effects of pharmacologic blockade of p110δ activity on thymocyte development in WT, p110δ^−/−, and p110γ^−/− mice. Briefly, 3 to 4 intact thymi were placed on bare filter inserts (transwell, 3-μm pore size; Corning Costar, Cambridge, MA) and then were inserted into wells containing DMEM, 10% FCS supplemented with either p110δ-specific inhibitor IC87114 (10 μM) or vehicle control (DMSO), and incubated for 1 week at 37° C. in 5% CO2. Thymocyte differentiation was evaluated by flow cytometry.
(In general: A flow cytometer gives signals particle by particle.)

[5] abbreviates: CCRF-CEM with p110γ shRNA knockdown, IC87114 10 μM.

Take `Cc1ccccc1-n1c(Cn2cnc3c(N)ncnc32)nc2cccc(C)c2c1=O` [IC87114, reference compound]: the “viability of primary human T-ALL samples” value in assay [1] is reported as “ineffective”. Besides, in assay [2], the “phosphorylated form of Akt/PKB after TCR cross-linking” value is on record as “not detected”. The proliferation and apoptosis result in assay [3] (CCRF-CEM containing empty vector alone, IC87114) is recorded as “no major effect”. Moreover, in assay [3] (setting [5]), the apoptosis entry is reported as “promoted apoptosis” and the proliferation entry is on record as “prevented proliferation”. Further, in assay [4] (p110γ−/− day 14.5 fetal thymi, mean±SE), the “reduction in the population of CD4+CD8+ DP thymocytes” value is listed as 69.2%±2.7%. Moreover, the “decrease in DP cells” value in assay [4] (p110δ−/− or WT control fetal thymi) was no more than 10%.
